{"source": "patent US4610989A", "about": "“Analgesic composition containing a mixture of 6-chloro-α-methyl-carbazole-2-acetic acid plus an opiate as the active agent” (priority 1985, dated 1986)", "system": "phenylquinone induced writhing", "format": "in vivo, male CF-1 mice", "settings": "for ED50 (95% Conf. Limits): p.o.; for ED50 (95% Conf. Limits) / Oral ED50 (95% Confidence Limits) / Oral Ed50: given alone; for Oral ED50 (95% Confidence Limits): Table II; for % Inhibition / No. Writhing Episodes: alone", "procedure": "The phenylquinone was dissolved in 5% ethyl alcohol and distilled water, gently heated to 37° C. and kept in a brown stoppered bottle to prevent deterioration. The test compounds were administered orally, in rapid succession, in distilled water 15 minutes prior to the phenylquinone.\nThe means and standard deviations computed during this analysis were then analyzed by \"parallel line bioassay\" that compared the opiate alkaloid alone in graded doses against, in turn, each combination of a range of opiate alkaloid doses plus a constant dose of carbazole compound. […] The opiate alkaloid dose scale here was always logarithmic.\nThe sequence of treatments in this study was not random. Rather, the ED50 for opiate alkaloid alone was determined. After this, combination experiments were conducted in which the carbazole racemic 6-chloro-α-methyl-carbazole-2-acetic acid, was administered at a constant dose and the ED50 of opiate alkaloid was redetermined in the presence of racemic 6-chloro-α-methyl-carbazole-2-acetic acid.\nInhibition of phenylquinone induced writhing by oxycodone potentiated by 6-chloro-α-methyl carbazole-2-acetic acid was determined by the procedure described hereinabove with one change. […] This transformation consisted of the [(square root of the number of writhes)+(square root of the number of writhes+1)] and is commonly employed with data that are distributed in a Poisson distribution.\nInhibition of phenylquinone induced writhing by morphine potentiated by 6-chloro-α-methyl-carbazole-2-acetic acid was determined by the procedure described hereinabove with one further change. […] This analysis was carried out on the set of values representing the percent of inhibition of writhing observed at each dose, as defined above, in any given assay.", "key": {"[1]": {"settings": "Table I, regression analysis and Fieller's Theorem"}, "[2]": {"settings": "Table III, square-root transformed writhes"}, "[3]": {"settings": "Table V, Litchfield and Wilcoxon"}}, "note": "Values joined by “and” are separate entries in the source; they are usually repeats but may differ in a detail not shown here. Equal entries are not always repeated. Where two headings read alike, the source gives them in different places."}
{"smiles": "CC(C(=O)O)c1ccc2c(c1)[nH]c1ccc(Cl)cc12", "note": "(racemic) [Compound A, 6-chloro-α-methyl-carbazole-2-acetic acid]", "values": [{"measurement": "ED50 (95% Conf. Limits)", "setting": "[1]", "result": "48.8 (25.7-72.0) mg/kg"}, {"measurement": "Oral ED50 (95% Confidence Limits)", "result": "48.8 (25.7-72.0)"}, {"measurement": "ED50 (95% Conf. Limits)", "setting": "[2]", "result": "41.9 (33.5-50.0) mg/kg"}, {"measurement": "Oral Ed50", "setting": "Table IV", "result": "41.9(33.5-50.0)"}, {"measurement": "ED50 (95% Conf. Limits)", "setting": "[3]", "result": "54(27-108) mg/kg"}, {"measurement": "Oral Ed50", "setting": "Table VI", "result": "54(27-108)"}, {"measurement": "% Inhibition", "setting": "oral dose 25", "result": "17% and 18% and 29%"}, {"measurement": "No. Writhing Episodes", "setting": "oral dose 25", "result": "91 and 103 and 86"}, {"measurement": "% Inhibition", "setting": "oral dose 50", "result": "58% and 48% and 51%"}, {"measurement": "No. Writhing Episodes", "setting": "oral dose 50", "result": "47 and 66 and 59"}, {"measurement": "% Inhibition", "setting": "oral dose 100", "result": "87% and 73% and 74%"}, {"measurement": "% Inhibition", "setting": "oral dose 200", "result": "96% and 90% and 91%"}]}
{"smiles": "COc1ccc2c3c1O[C@H]1C(=O)CC[C@@]4(O)[C@@H](C2)N(C)CC[C@]314", "note": "[Oxycodone, oxycodone]", "values": [{"measurement": "ED50 (95% Conf. Limits)", "setting": "[2]", "result": "0.25 (0.19-0.32) mg/kg"}, {"measurement": "Oral Ed50", "setting": "Table IV", "result": "0.25(0.19-0.32)"}, {"measurement": "% Inhibition", "setting": "oral dose 0.125", "result": 23, "unit": "%"}, {"measurement": "No. Writhing Episodes", "setting": "oral dose 0.125", "result": 87}, {"measurement": "% Inhibition", "setting": "oral dose 0.25", "result": 43, "unit": "%"}, {"measurement": "No. Writhing Episodes", "setting": "oral dose 0.25", "result": 64}, {"measurement": "% Inhibition", "setting": "oral dose 0.5", "result": 73, "unit": "%"}, {"measurement": "No. Writhing Episodes", "setting": "oral dose 0.5", "result": 31}, {"measurement": "% Inhibition", "setting": "oral dose 1", "result": 88, "unit": "%"}, {"measurement": "No. Writhing Episodes", "setting": "oral dose 1", "result": 14}, {"measurement": "% Inhibition", "setting": "oral dose 2", "result": 96, "unit": "%"}, {"measurement": "No. Writhing Episodes", "setting": "oral dose 2", "result": 5}]}
{"smiles": "COc1ccc2c3c1O[C@H]1[C@@H](O)C=C[C@H]4[C@@H](C2)N(C)CC[C@@]341", "note": "[Codeine, codeine]", "values": [{"measurement": "ED50 (95% Conf. Limits)", "setting": "[1]", "result": "9.2 (6.6-11.9) mg/kg"}, {"measurement": "Oral ED50 (95% Confidence Limits)", "result": "9.2 (6.6-11.9)"}, {"measurement": "% Inhibition", "setting": "oral dose 5", "result": 19, "unit": "%"}, {"measurement": "No. Writhing Episodes", "setting": "oral dose 5", "result": 92}, {"measurement": "% Inhibition", "setting": "oral dose 10", "result": 62, "unit": "%"}, {"measurement": "No. Writhing Episodes", "setting": "oral dose 10", "result": 43}, {"measurement": "% Inhibition", "setting": "oral dose 20", "result": 86, "unit": "%"}, {"measurement": "No. Writhing Episodes", "setting": "oral dose 20", "result": 16}, {"measurement": "% Inhibition", "setting": "oral dose 40", "result": 98, "unit": "%"}, {"measurement": "No. Writhing Episodes", "setting": "oral dose 40", "result": 2}]}
{"smiles": "CN1CC[C@]23c4c5ccc(O)c4O[C@H]2[C@@H](O)C=C[C@H]3[C@H]1C5", "note": "[Morphine, morphine]", "values": [{"measurement": "ED50 (95% Conf. Limits)", "setting": "[3]", "result": "2.5(1-4) mg/kg"}, {"measurement": "Oral Ed50", "setting": "Table VI", "result": "2.5(1-4)"}, {"measurement": "% Inhibition", "setting": "oral dose 1.25", "result": 21, "unit": "%"}, {"measurement": "% Inhibition", "setting": "oral dose 2.5", "result": 47, "unit": "%"}, {"measurement": "% Inhibition", "setting": "oral dose 5", "result": 83, "unit": "%"}, {"measurement": "% Inhibition", "setting": "oral dose 10", "result": 95, "unit": "%"}]}
